Assay results from US20140243292A1, “SUBSITUTED 2-(CHROMAN-6-YLOXYL)-THIAZOLES AND THEIR USE AS PHARMACEUTICALS” (Sanofi, priority 2011, published 2014).
Counter-ions that a name gives are not always drawn.

What was measured:
human NCX1 [1] = target: T1, human NCX1 (Homo sapiens, UniProt P32418); experiment: NCX1 inhibition, reverse mode (Ca2+ influx into cells), FLIPR Fluo-4 assay; format: cell-based; conditions: inhibition of NCX1 in reverse mode (Ca2+ influx into cells); read-out: NCX1rv IC50
T1 construct: expressed in transfected cells
How it was run: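 Max−min Fluo-4 fluorescence (520 nm, FLIPR, 240 points at 2 s) after 20 µM final gramicidin, which drives Na+ loading and reverse-mode Ca2+ entry, gave % inhibition and IC50. Test compound was preincubated 45 min at 16 °C with Fluo-4-loaded CHO cells stably expressing human NCX1, in pH 7.4 buffer containing 3.5 mM CaCl2 and probenecid.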

human NCX1 [2] = target: T1, human NCX1; experiment: NCX1 inhibition, forward mode (Ca2+ efflux out of cells), FLIPR calcium assay; format: cell-based; conditions: for IC50: CHO cells stably expressing human NCX1, read-out: NCX1fw IC50; for inhibition at 10 µM: CHO cells stably expressing human NCX1, read-out: Inhibition in % at 10 μM, IC50 value not determined
Text: The sodium/calcium exchanger NCX1 can transport calcium ions and sodium ions through the cell membrane. The transport is an exchange of Ca^2+ and Na^+ in two directions depending on membrane potential and ion gradients. At the first direction, named “forward mode” or “calcium export mode”, Ca^2+ is transported out of the cell and Na^+ is transported into the cell. At the other direction, named “reverse mode” or “calcium import mode”, the transport directions are vice versa. The effect of the compounds of the invention on NCX1 was determined in CHO cells stably expressing human NCX1 (gene symbol SLC8A1; cf. WO 2009/115238). The assay is based on the monitoring of intracellular Ca^2+ concentrations using a calcium-sensitive fluorescence dye which is detected by means of a FLIPR device (Fluorimetric Imaging Plate Reader, Molecular Devices).
The assay is based on the monitoring of intracellular Ca^2+ concentrations using the PBX Calcium Assay Kit from BD (Becton, Dickinson and Company) with calcium indicator dye 51-9000177BKa (BD, 640177). CHO cells expressing NCX1 were loaded with the dye, and after a preincubation period with the test compound, Ionomycin (Calbiochem, 407950) was added. Ionomycin is an ionophor for Ca^2+ ions mediating an increase of intracellular Ca^2+ ions. Consequently, intracellular Ca^2+ ions are exchanged against extracellular Na^+ ions (Ca^2+ efflux, forward mode). The decrease of intracellular Ca^2+ ions was detected by measuring the fluorescence of the calcium indicator dye at a wavelength of 520 nm by a FLIPR device.
Briefly, similarly as for the reverse mode, for the forward mode transport assay 18000 cells per well were seeded into a 96 well microplate (Corning COSTAR 3904) and incubated overnight in culture medium (cf. above). A total volume of 100 μl medium per well was used. For the preparation of the FLIPR assay, the culture medium was removed from the plates and 100 μl of assay buffer (133.8 mM NaCl (Sigma, S5886); 4.7 mM KCl (Sigma, P3911); 1.25 mM MgCl2 (Merck, 1.05833.0250); 3.5 mM CaCl2(Merck, 1.02083.0250); 5 mM glucose (Sigma, G7021); 10 mM Hepes (Sigma, H4034); pH 7.4)) were added to each well in a washing step. Assay buffer was removed, and 100 μl of a solution of the test compound in assay buffer in different concentrations were added into the wells. Further, 100 μl of dye solution (0.09% (v/v) calcium indicator dye, 9.1% (v/v) signal enhancer (from PBX Calcium Assay Kit); in assay buffer) were added into each well. The plates were incubated in the dark at room temperature for 60 min. Meanwhile a 10 μM solution of Ionomycin in assay buffer (additionally containing 0.05% fetal calf serum (cf. above); 4° C.) was prepared and stored in the wells of a 96 well microplate (96 well microplate, polypropylene, U-shape (Greiner Bio-One, 650201)). The fluorescence monitoring was performed at 60 measuring points with measurement intervals of 2 sec. After the fifth measuring point, 50 μl of the Ionomycin solution were added to each well of the assay plate to give a final Ionomycin concentration of 2 μM. For the determination of the IC50 values the minimal fluorescence value was subtracted from the maximal fluorescence value for the fifteenth to fifty-fifth measuring points. The calculation of the IC50 values via the percentage inhibitions of Ca^2+ efflux out of cells (forward mode) effected by the test compound was performed in Biost@t Speed 2.0. “NCX1fw IC50” in Table 2 means the IC50 value for inhibition of NCX1 in forward mode (in μM (micromol/liter)).

| SMILES | IC50 (human NCX1 [1]) | IC50 (human NCX1 [2]) | inhibition at 10 µM (human NCX1 [2]) |
| --- | --- | --- | --- |
| c1ccc(C2CCc3cc(Oc4ncc(CNCc5ccncc5)s4)ccc3O2)cc1 (centres unmarked) [Example 134, [2-(2-Phenyl-chroman-6-yloxy)-thiazol-5-ylmethyl]-pyridin-4-ylmethyl-amine] | 200 nM | 2600 nM |  |
| COC(=O)[C@@H](C)NC(=O)c1cnc(Oc2ccc3c(c2)CCC(c2cccnc2)O3)s1 (some centres unmarked) [Example 275] | 3100 nM | 9900 nM |  |
| O=C(NCc1nnc2n1CCC2)c1cnc(Oc2ccc3c(c2)CCC(c2cccc(F)c2)O3)s1 (centres unmarked) [Example 20, hydrochloride] | 200 nM | 1200 nM |  |
| Cc1nn(C)c(C)c1S(=O)(=O)NCc1cnc(Oc2ccc3c(c2)CCC(c2ccccc2)O3)s1 (centres unmarked) [Example 125, 1,3,5-Trimethyl-1H-pyrazole-4-sulfonic acid [2-(2-phenyl-chroman-6-yloxy)-thiazol-5-ylmethyl]-amide] | 9200 nM |  | 20% |
| CCOC(=O)[C@@H]1CCCC[C@@H]1NC(=O)c1cnc(Oc2ccc3c(c2)CC[C@@H](c2ccccc2)O3)s1 [Example 189] | 600 nM |  | 17% |
| O=C(NC(CCO)C1CC1)c1cnc(Oc2ccc3c(c2)CC[C@@H](c2ccccc2)O3)s1 (some centres unmarked) [Example 206] | 300 nM | 1600 nM |  |
| Cc1c(CNC(=O)c2cnc(Oc3ccc4c(c3)CCC(c3ccccc3)O4)s2)cnn1C (centres unmarked) [Example 14, 2-(2-Phenyl-chroman-6-yloxy)-thiazole-5-carboxylic acid (1,5-dimethyl-1H-pyrazol-4-ylmethyl)-amide] | 300 nM | 2200 nM |  |
| O=C(O)C1CN(C(=O)c2cnc(Oc3ccc4c(c3)CC[C@@H](c3ccccc3)O4)s2)CC1C(F)(F)F (some centres unmarked) [Example 243] | 700 nM |  | 19% |
| O=C(NCc1ccncc1)c1sc(Oc2ccc3c(c2)CCC(c2ccccc2)O3)nc1Cl (centres unmarked) [Example 177, 4-Chloro-2-(2-phenyl-chroman-6-yloxy)-thiazole-5-carboxylic acid (pyridin-4-ylmethyl)-amide hydrochloride] | 300 nM | 800 nM |  |
| Cc1ccccc1C1CCc2cc(Oc3nc(C)c(C(=O)NCCO)s3)ccc2O1 (centres unmarked) [Example 335] | 300 nM | 900 nM |  |
| O=C(NC1C2CNCC21)c1cnc(Oc2ccc3c(c2)CC[C@@H](c2ccccc2)O3)s1 (some centres unmarked) [Example 255] | 300 nM | 600 nM |  |
| O=C(NCc1nnc2n1CCC2)c1cnc(Oc2ccc3c(c2)CCC(c2ccccc2)O3)s1 (centres unmarked) [Example 2, 2-(2-Phenyl-chroman-6-yloxy)-thiazole-5-carboxylic acid (6,7-dihydro-5H-pyrrolo[2,1-c][1,2,4]triazol-3-ylmethyl)-amide] | 300 nM | 1900 nM |  |
| Cc1nc(Oc2ccc3c(c2)CCC(c2ccccc2)O3)sc1C(=O)NCc1ccncc1 (centres unmarked) [Example 59, hydrochloride] | 100 nM | 200 nM |  |
| c1ccc(C2CCc3cc(Oc4ncc(CNCc5cn6ccsc6n5)s4)ccc3O2)cc1 (centres unmarked) [Example 158] | 300 nM |  | 46% |
| c1ccc(C2CCc3cc(Oc4ncc(CNC5CC5)s4)ccc3O2)cc1 (centres unmarked) [Example 103] | 200 nM | 3100 nM |  |
| O=C(c1cnc(Oc2ccc3c(c2)CC[C@@H](c2ccccc2)O3)s1)N1CCOCC1 [Example 214] | 500 nM | 4500 nM |  |
| O=C(NCc1ccnc(Cl)c1)c1cnc(Oc2ccc3c(c2)CCC(c2ccccc2)O3)s1 (centres unmarked) [Example 39, 2-(2-Phenyl-chroman-6-yloxy)-thiazole-5-carboxylic acid (2-chloro-pyridin-4-ylmethyl)-amide] | 300 nM | 1200 nM |  |
| Cc1ccccc1C1CCc2cc(Oc3nc(C)c(C(=O)N4CC[C@@H](O)C4)s3)ccc2O1 (some centres unmarked) [compound 336] | 600 nM |  |  |
| COc1c(F)cccc1C1CCc2cc(Oc3ncc(C(=O)NCc4ccno4)s3)ccc2O1 (centres unmarked) [compound 366] | 180 nM |  |  |
| Cc1ccccc1C1CCc2cc(Oc3ncc(CNC(=O)CN4C(=O)CNC4=O)s3)ccc2O1 (centres unmarked) [compound 328] | 900 nM |  |  |
| CC[C@H](NC(=O)c1cnc(Oc2ccc3c(c2)CCC(c2ccccc2)O3)s1)c1ccc(OC)nc1 (some centres unmarked) [compound 22] | 400 nM |  |  |
| Cc1c(C(=O)NCc2cnc(Oc3ccc4c(c3)CCC(c3ccccc3)O4)s2)cnn1C (centres unmarked) [compound 71] | 700 nM |  |  |
| CC(C)(C)NCc1cnc(Oc2ccc3c(c2)CCC(c2ccccc2)O3)s1 (centres unmarked) [compound 118] | 400 nM |  |  |
| CN(CC(=O)O)C(=O)c1cnc(Oc2ccc3c(c2)CC[C@@H](c2ccccc2)O3)s1 [compound 190] | 900 nM |  |  |
| Cc1ccn(CCNCc2cnc(Oc3ccc4c(c3)CCC(c3ccccc3)O4)s2)n1 (centres unmarked) [compound 136] | 500 nM |  |  |
| O=C(NCc1ccno1)c1cnc(Oc2ccc3c(c2)CC[C@@H](c2ccccc2)O3)s1 [compound 171] | 100 nM |  |  |
| O=C(NCc1ccnc(O)c1)c1cnc(Oc2ccc3c(c2)CCC(c2ccccc2)O3)s1 (centres unmarked) [compound 42] | 200 nM |  |  |
| O=C(NCc1ccncc1)c1cnc(Oc2ccc3c(c2Cl)CCC(c2ccccc2)O3)s1 (centres unmarked) [compound 55, hydrochloride] | 1200 nM |  |  |

Second part, the compound after the results:

| IC50 (human NCX1 [1]) | IC50 (human NCX1 [2]) | inhibition at 10 µM (human NCX1 [2]) | SMILES |
| --- | --- | --- | --- |
| 200 nM | 600 nM |  | O=C(NCc1ccncc1)c1cnc(Oc2ccc3c(c2)CCC(c2cccc(F)c2)O3)s1 (centres unmarked) [Example 18, hydrochloride] |
| 600 nM | 8300 nM |  | O=C(NCc1ccno1)c1cnc(Oc2ccc3c(c2)CCC(c2cccnc2)O3)s1 (centres unmarked) [Example 58, hydrochloride] |
| 210 nM |  | 31% | O=C(NCCN1CCNC1=O)c1csc(Oc2ccc3c(c2)CC[C@@H](c2ccccc2)O3)n1 [Example 352] |
| 300 nM | 1900 nM |  | Cc1ccccc1C1CCc2cc(Oc3ncc(C(=O)NCCN4CCNC4=O)s3)ccc2O1 (centres unmarked) [Example 216, 2-(2-o-Tolyl-chroman-6-yloxy)-thiazole-5-carboxylic acid [2-(2-oxo-imidazolidin-1-yl)-ethyl]-amide] |
| 400 nM | 1500 nM |  | CCCNC(=O)c1cnc(Oc2ccc3c(c2)CCC(c2ccccc2)O3)s1 (centres unmarked) [Example 321, 2-(2-Phenyl-chroman-6-yloxy)-thiazole-5-carboxylic acid propylamide] |
| 600 nM |  | 8% | COC(=O)C(C)(C)NC(=O)c1cnc(Oc2ccc3c(c2)CC[C@@H](c2ccccc2)O3)s1 [Example 182] |
| 600 nM |  | 27% | O=C(NCc1ccncn1)c1cnc(Oc2ccc3c(c2)CCC(c2ccccc2)O3)s1 (centres unmarked) [Example 32] |
| 100 nM |  |  | CCCCNC(=O)c1cnc(Oc2ccc3c(c2)CCC(c2ccccc2)O3)s1 (centres unmarked) [compound 317] |
| 100 nM |  |  | O=C(NCc1ccno1)c1cnc(Oc2ccc3c(c2)CCC(c2ccccc2)O3)s1 (centres unmarked) [compound 24] |
| 1000 nM |  |  | NC[C@@H]1[C@H]2CC[C@H](C2)[C@H]1NC(=O)c1cnc(Oc2ccc3c(c2)CC[C@@H](c2ccccc2)O3)s1 [compound 293] |
| 100 nM |  |  | c1ccc([C@@H]2CCc3cc(Oc4ncc(CNCc5ccno5)s4)ccc3O2)cc1 [compound 210] |
| 200 nM |  |  | Cc1ccccc1C1CCc2cc(Oc3ncc(C(=O)N4CC[C@@H](O)C4)s3)ccc2O1 (some centres unmarked) [compound 300] |
| 500 nM |  |  | COC(=O)[C@@H]1CCCN1C(=O)c1cnc(Oc2ccc3c(c2)CC[C@@H](c2ccccc2)O3)s1 [compound 185] |
